Legend:
Format in all cases: cell-based
PC-3 = assay: MTS cell kill, PC-3
Procedure: (§1) Cells were maintained at 37° C., 5% CO2 in DMEM media supplemented with 1% fetal bovine serum, penicillin/streptomycin and fungizone (Invitrogen). Cells were seeded into 96-well tissue culture plates at 3000 per well and cultured at 37° C. for 18 hours. Test compounds were dissolved and diluted to 300× in DMSO then diluted 1:40 in DMEM.

DLD-1 = assay: MTS cell kill, DLD-1
Procedure: as §1

NCI-H1299 = assay: MTS cell kill, NCI-H1299
Procedure: as §1

PACA-2 = assay: MTS cell kill, PACA-2
Procedure: as §1

MDA-MB-231 = assay: MTS cell kill, MDA-MB-231
Procedure: as §1

KATO III = assay: MTS assay, KATO III
Procedure: as §1
Also: test concentration or dose not given here.

CN(C)CCCCNc1ncc2c(n1)-c1ccccc1C(c1ccc(NS(=O)(=O)c3ccc(-c4ccccc4)cc3)cc1)C2 (stereo not shown) [Example 421, N-[4-(2-{[4-(dimethylamino)butyl]amino}-5,6-dihydrobenzo[h]quinazolin-6-yl)phenyl]biphenyl-4-sulfonamide]
MTS cell kill data (% inhibition) PC-3 (PC-3): A (A = 80-100% inhibition)
MTS cell kill data (% inhibition) DLD-1 (DLD-1): A (A = 80-100% inhibition)
MTS cell kill data (% inhibition) NCI-H1299 (NCI-H1299): A (A = 80-100% inhibition)
MTS cell kill data (% inhibition) PACA-2 (PACA-2): A (A = 80-100% inhibition)
MTS cell kill data (% inhibition) MDA-MB-231 (MDA-MB-231): A (A = 80-100% inhibition)
MTS cell kill data (% inhibition) KATO III (KATO III): A (A = 80-100% inhibition)

N#Cc1cccc(NC(=O)N2CCC3(CC2)Cc2cnc(Nc4ccc(CO)cc4)nc2-c2ccccc23)c1 [Example 414, N-(3-cyanophenyl)-2-{[4-(hydroxymethyl)phenyl]amino}-1′H,5H-spiro[benzo[h]quinazoline-6,4′-piperidine]-1′-carboxamide]
MTS cell kill data (% inhibition) DLD-1 (DLD-1): B (B = 50-79% inhibition)
MTS cell kill data (% inhibition) NCI-H1299 (NCI-H1299): B (B = 50-79% inhibition)
MTS cell kill data (% inhibition) PACA-2 (PACA-2): A (A = 80-100% inhibition)
MTS cell kill data (% inhibition) MDA-MB-231 (MDA-MB-231): B (B = 50-79% inhibition)
MTS cell kill data (% inhibition) KATO III (KATO III): A (A = 80-100% inhibition)

CNc1ncc2c(n1)-c1ccccc1C1(CCN(C(=O)Nc3cccc(Cl)c3)CC1)C2 [Example 408, N-(3-chlorophenyl)-2-(methylamino)-1′H,5H-spiro[benzo[h]quinazoline-6,4′-piperidine]-1′-carboxamide]
MTS cell kill data (% inhibition) DLD-1 (DLD-1): A (A = 80-100% inhibition)
MTS cell kill data (% inhibition) NCI-H1299 (NCI-H1299): C (C = <50% inhibition)
MTS cell kill data (% inhibition) PACA-2 (PACA-2): A (A = 80-100% inhibition)
MTS cell kill data (% inhibition) MDA-MB-231 (MDA-MB-231): C (C = <50% inhibition)
MTS cell kill data (% inhibition) KATO III (KATO III): A (A = 80-100% inhibition)

CN1CCN(CCCNc2ncc3c(n2)-c2ccccc2C(c2ccc(NCc4cccc5cc[nH]c45)cc2)C3)CC1 (stereo not shown) [Example 573, 6-{4-[(1H-indol-7-ylmethyl)amino]phenyl}-N-[3-(4-methylpiperazin-1-yl)propyl]-5,6-dihydrobenzo[h]quinazolin-2-amine]
MTS cell kill data (% inhibition) DLD-1 (DLD-1): A (A = 80-100% inhibition)
MTS cell kill data (% inhibition) NCI-H1299 (NCI-H1299): A (A = 80-100% inhibition)
MTS cell kill data (% inhibition) PACA-2 (PACA-2): A (A = 80-100% inhibition)
MTS cell kill data (% inhibition) MDA-MB-231 (MDA-MB-231): A (A = 80-100% inhibition)
MTS cell kill data (% inhibition) KATO III (KATO III): A (A = 80-100% inhibition)

Cc1ccc(CNc2ccc(C3Cc4cnc(NCCCN5CCN(C)CC5)nc4-c4ccccc43)cc2)c(C)c1 (stereo not shown) [Example 571, 6-{4-[(2,4-dimethylbenzyl)amino]phenyl}-N-[3-(4-methylpiperazin-1-yl)propyl]-5,6-dihydrobenzo[h]quinazolin-2-amine]
MTS cell kill data (% inhibition) DLD-1 (DLD-1): A (A = 80-100% inhibition)
MTS cell kill data (% inhibition) NCI-H1299 (NCI-H1299): A (A = 80-100% inhibition)
MTS cell kill data (% inhibition) PACA-2 (PACA-2): A (A = 80-100% inhibition)
MTS cell kill data (% inhibition) MDA-MB-231 (MDA-MB-231): A (A = 80-100% inhibition)
MTS cell kill data (% inhibition) KATO III (KATO III): A (A = 80-100% inhibition)

Cc1ccc(F)c(CNc2ccc(C3Cc4cnc(NCCCN5CCN(C)CC5)nc4-c4ccccc43)cc2)c1 (stereo not shown) [Example 570, 6-{4-[(2-fluoro-5-methylbenzyl)amino]phenyl}-N-[3-(4-methylpiperazin-1-yl)propyl]-5,6-dihydrobenzo[h]quinazolin-2-amine]
MTS cell kill data (% inhibition) DLD-1 (DLD-1): A (A = 80-100% inhibition)
MTS cell kill data (% inhibition) NCI-H1299 (NCI-H1299): A (A = 80-100% inhibition)
MTS cell kill data (% inhibition) PACA-2 (PACA-2): A (A = 80-100% inhibition)
MTS cell kill data (% inhibition) MDA-MB-231 (MDA-MB-231): A (A = 80-100% inhibition)
MTS cell kill data (% inhibition) KATO III (KATO III): A (A = 80-100% inhibition)

— patent US8357694B2, “Substituted 5,6-dihydro-6-phenylbenzo[F]isoquinolin-2-amine compounds” (ArQule, Inc., priority 2008, dated 2013)
